Experimental data taken from the supplement of paper PMC10307832.

Key:
Assay in all cases: relative viability (nuclei count vs DMSO), 5 days (fraction); higher = more cells survive
NCI-H1299 = system: NCI-H1299
How it was run: (§1)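 Cells from lung cancer lines were seeded into 1536-well plates and, one day later, dosed by pin tool. Treatments were either a single drug or a fixed dose of an anchor drug with five library-drug doses (not always all listed) in √10 steps. After 5 days, nuclei were stained in a one-step fixation (final 0.05% Triton X-100, 1% formaldehyde, 1 ug/ml Hoechst) and counted on 4× images, and relative viability is the treated-to-vehicle nuclei ratio, as the median of duplicate plates.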

EBC-1 = system: EBC-1
How it was run: as §1

Calu-6 = system: Calu-6
How it was run: as §1

A549 = system: A549
How it was run: as §1

NCI-H2126 = system: NCI-H2126
How it was run: as §1

NCI-H1648 = system: NCI-H1648
How it was run: as §1

IA-LM = system: IA-LM
How it was run: as §1

NCI-H1703 = system: NCI-H1703
How it was run: as §1

NCI-H1623 = system: NCI-H1623
How it was run: as §1

SMILES	relative viability (NCI-H1299; first compound 0.04 µM)	relative viability (NCI-H1299; first compound 0.1265 µM)	relative viability (NCI-H1299; first compound 0.4 µM)	relative viability (NCI-H1299; first compound 1.265 µM)	relative viability (NCI-H1299; first compound 4 µM)	relative viability (EBC-1; first compound 0.04 µM)	relative viability (EBC-1; first compound 0.1265 µM)	relative viability (EBC-1; first compound 0.4 µM)	relative viability (EBC-1; first compound 1.265 µM)	relative viability (EBC-1; first compound 4 µM)	relative viability (A549; first compound 0.04 µM)	relative viability (A549; first compound 0.1265 µM)	relative viability (A549; first compound 0.4 µM)	relative viability (A549; first compound 1.265 µM)	relative viability (A549; first compound 4 µM)	relative viability (NCI-H2126; first compound 0.04 µM)	relative viability (NCI-H2126; first compound 0.1265 µM)	relative viability (NCI-H2126; first compound 0.4 µM)	relative viability (NCI-H2126; first compound 1.265 µM)	relative viability (NCI-H2126; first compound 4 µM)	other results
COc1cc(N2CCC(C(N)=O)CC2)ccc1Nc1nc(N)c(Cl)c(Nc2ccccc2S(=O)(=O)C(C)C)n1 [HG-5-88-01] + O=C(c1cc(Cc2n[nH]c(=O)c3ccccc23)ccc1F)N1CCN(C(=O)C2CC2)CC1 [Olaparib] (partner 8 µM)	0.956	0.972	0.986	0.951	0.87	0.712	0.77	0.733	0.668	0.489	0.357	0.419	0.352	0.273	0.25	0.972	0.911	0.939	0.822	0.872	relative viability (Calu-6; first compound 0.04 µM): 0.599; relative viability (Calu-6; first compound 0.1265 µM): 0.579; relative viability (Calu-6; first compound 0.4 µM): 0.579; relative viability (Calu-6; first compound 1.265 µM): 0.537; relative viability (Calu-6; first compound 4 µM): 0.46; relative viability (NCI-H1648; first compound 0.04 µM): 1.13; relative viability (NCI-H1648; first compound 0.1265 µM): 0.63; relative viability (NCI-H1648; first compound 0.4 µM): 0.457; relative viability (NCI-H1648; first compound 1.265 µM): 0.773; relative viability (NCI-H1648; first compound 4 µM): 0.462; relative viability (IA-LM; first compound 0.04 µM): 0.79; relative viability (IA-LM; first compound 0.1265 µM): 0.839; relative viability (IA-LM; first compound 0.4 µM): 0.87; relative viability (IA-LM; first compound 1.265 µM): 0.699; relative viability (IA-LM; first compound 4 µM): 0.649; relative viability (NCI-H1703; first compound 0.04 µM): 0.341; relative viability (NCI-H1703; first compound 0.1265 µM): 0.386; relative viability (NCI-H1703; first compound 1.265 µM): 0.305; relative viability (NCI-H1703; first compound 4 µM): 0.309
Clc1ccc(Nc2nnc(Cc3ccncc3)c3ccccc23)cc1 [Vatalanib] + CCNC(=O)c1noc(-c2cc(C(C)C)c(O)cc2O)c1-c1ccc(CN2CCOCC2)cc1 [Luminespib] (partner 0.01 µM)	–	–	–	–	–	–	–	–	–	–	–	–	–	–	–	0.925	0.864	0.919	0.94	0.908	relative viability (NCI-H1623; first compound 0.04 µM): 0.428; relative viability (NCI-H1623; first compound 0.1265 µM): 0.616; relative viability (NCI-H1623; first compound 0.4 µM): 0.579; relative viability (NCI-H1623; first compound 1.265 µM): 0.471; relative viability (NCI-H1623; first compound 4 µM): 0.478
Clc1ccc(Nc2nnc(Cc3ccncc3)c3ccccc23)cc1 [Vatalanib] + C[C@]1(O)C[C@@H](c2nc(-c3ccc4ccc(-c5ccccc5)nc4c3)c3c(N)nccn32)C1 [Linsitinib] (partner 1 µM)	1.05	0.955	0.948	0.961	0.967	1.14	0.777	0.994	0.812	0.808	0.51	0.573	0.703	0.656	0.592	0.669	0.72	0.669	0.729	0.739	relative viability (Calu-6; first compound 0.1265 µM): 0.926; relative viability (Calu-6; first compound 0.4 µM): 1.02; relative viability (Calu-6; first compound 1.265 µM): 0.912; relative viability (Calu-6; first compound 4 µM): 1.01; relative viability (IA-LM; first compound 0.04 µM): 0.763; relative viability (IA-LM; first compound 0.1265 µM): 0.59; relative viability (IA-LM; first compound 0.4 µM): 0.69; relative viability (IA-LM; first compound 1.265 µM): 0.55; relative viability (IA-LM; first compound 4 µM): 0.582; relative viability (NCI-H1703; first compound 0.04 µM): 0.804; relative viability (NCI-H1703; first compound 0.4 µM): 1.21; relative viability (NCI-H1703; first compound 1.265 µM): 0.386; relative viability (NCI-H1703; first compound 4 µM): 0.211
Clc1ccc(Nc2nnc(Cc3ccncc3)c3ccccc23)cc1 [Vatalanib] + Cc1nc(NC(=O)N2CCC[C@H]2C(N)=O)sc1-c1ccnc(C(C)(C)C(F)(F)F)c1 [Alpelisib] (partner 2 µM)	1.02	1.08	1.05	1.02	1.04	0.842	0.698	0.82	0.856	0.852	0.795	0.758	0.922	0.694	0.707	0.714	0.75	0.761	0.725	0.742	relative viability (Calu-6; first compound 0.04 µM): 1.09; relative viability (Calu-6; first compound 0.1265 µM): 0.95; relative viability (Calu-6; first compound 0.4 µM): 1.08; relative viability (Calu-6; first compound 1.265 µM): 0.958; relative viability (Calu-6; first compound 4 µM): 0.938; relative viability (IA-LM; first compound 0.04 µM): 0.747; relative viability (IA-LM; first compound 0.1265 µM): 0.754; relative viability (IA-LM; first compound 0.4 µM): 0.715; relative viability (IA-LM; first compound 1.265 µM): 0.797; relative viability (IA-LM; first compound 4 µM): 0.918; relative viability (NCI-H1703; first compound 0.04 µM): 0.327; relative viability (NCI-H1703; first compound 0.4 µM): 0.395; relative viability (NCI-H1703; first compound 1.265 µM): 0.235; relative viability (NCI-H1703; first compound 4 µM): 0.212
Clc1ccc(Nc2nnc(Cc3ccncc3)c3ccccc23)cc1 [Vatalanib] + Cc1nc(Nc2ncc(C(=O)Nc3c(C)cccc3Cl)s2)cc(N2CCN(CCO)CC2)n1 [Dasatinib] (partner 0.075 µM)	–	–	–	–	–	–	–	–	–	–	–	–	–	–	–	0.609	0.571	0.585	0.42	0.503	relative viability (NCI-H1623; first compound 0.04 µM): 0.449; relative viability (NCI-H1623; first compound 0.1265 µM): 0.619; relative viability (NCI-H1623; first compound 0.4 µM): 0.545; relative viability (NCI-H1623; first compound 1.265 µM): 0.533; relative viability (NCI-H1623; first compound 4 µM): 0.435
Clc1ccc(Nc2nnc(Cc3ccncc3)c3ccccc23)cc1 [Vatalanib] + N=C(N)NC(=N)NCCc1ccccc1 [Phenformin] (partner 250 µM)	–	–	–	–	–	–	–	–	–	–	0.206	0.131	0.104	0.143	0.154	0.508	0.521	0.453	0.487	0.546	relative viability (NCI-H1623; first compound 0.04 µM): 0.584; relative viability (NCI-H1623; first compound 0.1265 µM): 0.577; relative viability (NCI-H1623; first compound 0.4 µM): 0.514; relative viability (NCI-H1623; first compound 1.265 µM): 0.581; relative viability (NCI-H1623; first compound 4 µM): 0.524
Clc1ccc(Nc2nnc(Cc3ccncc3)c3ccccc23)cc1 [Vatalanib] + O=C(c1cc(Cc2n[nH]c(=O)c3ccccc23)ccc1F)N1CCN(C(=O)C2CC2)CC1 [Olaparib] (partner 8 µM)	0.986	0.924	1.04	0.923	0.965	0.761	0.59	0.817	0.663	0.654	0.478	0.302	0.532	0.239	0.3	0.888	0.926	0.938	0.85	0.966	relative viability (Calu-6; first compound 0.1265 µM): 0.567; relative viability (Calu-6; first compound 0.4 µM): 0.539; relative viability (Calu-6; first compound 1.265 µM): 0.554; relative viability (Calu-6; first compound 4 µM): 0.541; relative viability (NCI-H1648; first compound 0.04 µM): 0.943; relative viability (NCI-H1648; first compound 0.1265 µM): 0.866; relative viability (NCI-H1648; first compound 0.4 µM): 1.01; relative viability (NCI-H1648; first compound 1.265 µM): 0.611; relative viability (NCI-H1648; first compound 4 µM): 1.04; relative viability (IA-LM; first compound 0.04 µM): 0.89; relative viability (IA-LM; first compound 0.1265 µM): 0.843; relative viability (IA-LM; first compound 0.4 µM): 0.831; relative viability (IA-LM; first compound 1.265 µM): 0.701; relative viability (IA-LM; first compound 4 µM): 0.645; relative viability (NCI-H1703; first compound 0.04 µM): 0.506; relative viability (NCI-H1703; first compound 0.4 µM): 0.624; relative viability (NCI-H1703; first compound 1.265 µM): 0.299; relative viability (NCI-H1703; first compound 4 µM): 0.22
